Experimental data reported in article PMC6347521 (Current protocols in toxicology, 2018).
Like-named read-outs stand apart in the source and are kept apart here.

Legend:
[1] = test system: Hep3B human hepatoma cell line; assay: cells; assay type: cell-based; details: read-out: IC50 TMRM
[2] = test system: Hep3B human hepatoma cell line; assay: cells; assay type: cell-based; details: read-out: IC50 Hoechst
[3] = test system: Hep3B human hepatoma cell line; assay: cells; assay type: cell-based; details: read-out: IC50 mBCl
[4] = test system: Hep3B human hepatoma cell line; assay: cells; assay type: cell-based; details: read-out: IC50 Calcein AM
[5] = test system: 2D; details: read-out: IC50 2D (literature review), cited from earlier work
[6] = test system: rat; details: ref not given; cited from earlier work
[7] = 2D cell culture, ref literature review

Structure (SMILES) | IC50 ([1]; Homo sapiens, Hep3B, 48 h) | IC50 ([2]; Homo sapiens, Hep3B, 48 h) | IC50 ([3]; Homo sapiens, Hep3B, 48 h) | IC50 ([4]; Homo sapiens, Hep3B, 48 h) | IC50 [5] | LD50 mg/kg (rat oral) [6] | IC50 [5, 7] | IC50 [1] | IC50 [2] | IC50 [3] | IC50 [4]
CC(=O)Nc1ccc(O)cc1 [Acetaminophen] | > 2100 µM | > 2100 µM | > 2100 µM | > 2100 µM | 29800 µM |  |  |  |  |  | 
CC[C@H](C)C(=O)O[C@H]1C[C@@H](C)C=C2C=C[C@H](C)[C@H](CC[C@@H]3C[C@@H](O)CC(=O)O3)[C@H]21 [Lovastatin] | 152 ± 6.7 µM | 188 ± 17.7 µM | 195 ± 5 µM | 150 µM | 20 ± 3.7 µM | 5000 mg/kg |  |  |  |  | 
CC1=CC(=O)c2ccccc2C1=O [Menadione] | 11.5 ± 2.5 µM | 20 ± 1 µM | 15 ± 2.3 µM | 11 ± 3.8 µM |  |  | 13.5 ± 3.6 µM |  |  |  | 
C=C(C)[C@H]1Cc2c(ccc3c2O[C@@H]2COc4cc(OC)c(OC)cc4[C@@H]2C3=O)O1 [Rotenone] | 0.6 ± 0.3 µM | 3 µM | 1.7 ± 0.7 µM | 8 ± 6 µM |  | 30 mg/kg | 1.7 ± 1.2 µM |  |  |  | 
O=C([O-])CC(O)(CC(=O)[O-])C(=O)[O-].[Na+].[Na+].[Na+] [Sodium citrate] |  |  |  |  | > 1400 µM |  |  | > 1400 µM | > 1400 µM | > 1400 µM | > 1400 µM
CC/C(=C(\c1ccccc1)c1ccc(OCCN(C)C)cc1)c1ccccc1 [Tamoxifen] |  |  |  |  |  | 4100 mg/kg |  |  |  |  | 
